{
  "source": "paper PMC12655426",
  "about": "(Pharmaceutics, 2025)",
  "key": {"[1]": {"test_system": "hPEPT (PEPT1, PEPT2)", "test": "OTA uptake in PEPT1- and PEPT2-expressing MDCK-II cells", "assay_type": "in vitro ADME, human", "conditions": "10 μM OTA, pH 6.5, 5 min"}, "[2]": {"biological_target": "T1, human MRP2 (Homo sapiens, UniProt Q92887)", "T1 construct": "purchased BioIVT; host or cells: Sf9 cell-derived membrane vesicles", "T1 sequence (Q92887 whole entry)": "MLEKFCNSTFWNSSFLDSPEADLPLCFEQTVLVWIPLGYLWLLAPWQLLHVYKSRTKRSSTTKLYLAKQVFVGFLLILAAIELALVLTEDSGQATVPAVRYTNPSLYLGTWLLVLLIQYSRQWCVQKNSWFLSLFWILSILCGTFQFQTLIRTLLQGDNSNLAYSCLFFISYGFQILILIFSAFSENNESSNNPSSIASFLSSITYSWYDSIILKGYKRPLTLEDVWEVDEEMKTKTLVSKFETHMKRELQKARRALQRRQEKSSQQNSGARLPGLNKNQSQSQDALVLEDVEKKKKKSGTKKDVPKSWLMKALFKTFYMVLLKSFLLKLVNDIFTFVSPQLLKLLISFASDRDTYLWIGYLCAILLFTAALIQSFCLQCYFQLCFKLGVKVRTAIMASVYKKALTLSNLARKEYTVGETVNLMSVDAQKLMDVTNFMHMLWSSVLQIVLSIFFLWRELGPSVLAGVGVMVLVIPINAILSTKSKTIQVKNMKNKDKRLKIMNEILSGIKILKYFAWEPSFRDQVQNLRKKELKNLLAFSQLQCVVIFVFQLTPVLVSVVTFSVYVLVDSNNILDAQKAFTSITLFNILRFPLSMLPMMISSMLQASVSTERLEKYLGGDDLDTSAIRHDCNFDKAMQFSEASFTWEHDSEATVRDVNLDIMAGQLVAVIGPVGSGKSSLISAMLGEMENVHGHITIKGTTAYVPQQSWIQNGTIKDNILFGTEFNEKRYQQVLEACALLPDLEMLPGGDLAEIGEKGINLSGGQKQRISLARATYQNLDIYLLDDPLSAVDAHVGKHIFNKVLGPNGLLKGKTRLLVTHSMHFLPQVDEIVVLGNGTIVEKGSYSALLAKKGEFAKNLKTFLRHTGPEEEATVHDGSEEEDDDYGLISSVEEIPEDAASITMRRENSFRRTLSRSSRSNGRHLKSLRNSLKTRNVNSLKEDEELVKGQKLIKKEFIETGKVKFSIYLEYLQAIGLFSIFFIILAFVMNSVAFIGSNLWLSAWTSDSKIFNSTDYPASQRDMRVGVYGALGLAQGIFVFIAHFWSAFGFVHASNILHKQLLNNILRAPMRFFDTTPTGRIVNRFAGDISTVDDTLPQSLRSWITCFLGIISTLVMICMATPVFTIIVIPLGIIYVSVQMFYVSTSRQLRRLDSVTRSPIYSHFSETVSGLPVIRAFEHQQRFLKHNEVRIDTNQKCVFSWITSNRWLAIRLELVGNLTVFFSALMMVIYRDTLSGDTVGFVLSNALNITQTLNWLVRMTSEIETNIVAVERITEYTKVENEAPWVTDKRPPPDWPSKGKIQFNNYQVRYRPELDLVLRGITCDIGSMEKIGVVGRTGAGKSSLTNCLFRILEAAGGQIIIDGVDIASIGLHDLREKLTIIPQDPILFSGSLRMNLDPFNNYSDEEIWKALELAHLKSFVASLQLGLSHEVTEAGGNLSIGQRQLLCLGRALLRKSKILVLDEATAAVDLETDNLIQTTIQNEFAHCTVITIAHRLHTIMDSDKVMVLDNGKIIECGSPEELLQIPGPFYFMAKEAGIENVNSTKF", "test": "OTA uptake in MRP2-expressing Sf9 membrane vesicles", "assay_type": "in vitro ADME", "conditions": "10 μM OTA, 5 min", "description": "The following experiments were conducted at BioIVT."}, "[3]": {"conditions": "0.5 mg/kg oral, rats, cited from earlier work"}, "[4]": {"biological_target": "T2, human BCRP (Homo sapiens, UniProt Q9UNQ0)", "T2 sequence (Q9UNQ0 1-655)": "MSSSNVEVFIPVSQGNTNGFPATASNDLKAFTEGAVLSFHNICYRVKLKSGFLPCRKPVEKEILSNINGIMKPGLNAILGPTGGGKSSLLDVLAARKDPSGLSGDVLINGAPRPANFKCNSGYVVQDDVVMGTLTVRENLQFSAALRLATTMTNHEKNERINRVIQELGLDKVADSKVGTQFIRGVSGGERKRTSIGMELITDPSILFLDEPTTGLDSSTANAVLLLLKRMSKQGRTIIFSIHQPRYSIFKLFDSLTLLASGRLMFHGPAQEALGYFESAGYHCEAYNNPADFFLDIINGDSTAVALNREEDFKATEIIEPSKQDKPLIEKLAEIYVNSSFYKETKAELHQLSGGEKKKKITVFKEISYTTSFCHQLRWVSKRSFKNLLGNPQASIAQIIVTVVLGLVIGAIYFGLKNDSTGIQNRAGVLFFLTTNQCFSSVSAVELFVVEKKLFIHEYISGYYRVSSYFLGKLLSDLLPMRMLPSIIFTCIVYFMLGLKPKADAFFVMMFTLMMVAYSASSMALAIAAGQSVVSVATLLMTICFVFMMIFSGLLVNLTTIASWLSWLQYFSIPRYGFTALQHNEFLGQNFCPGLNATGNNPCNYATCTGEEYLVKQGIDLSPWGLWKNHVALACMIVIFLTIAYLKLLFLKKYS", "test": "Bidirectional transport of OTA in BCRP-expressing MDCK-II cells", "conditions": "net B to A flux, 1.56 to 100 μM OTA", "description": "All cellular-based assays were conducted in technical triplicate across three independent experiments. […] This cutoff was defined a priori. […] Jnet was then treated as the initial uptake rate, and Km and Vmax values were obtained by fitting the Michaelis–Menten equation to the substrate-concentration data as described above. Intrinsic clearance (CLint) was then calculated by the formula, CLint=Vmax/Km using Vmax and Km values as calculated above. […] At steady-state, the mass balance for intracellular concentrations assuming symmetric passive permeabilities (Papical = Pbasal, taken as Papp from mock assays) and apical efflux gives: Ccell= Cbasal/1+ ke/Pa where Cbasal is the concentration in the basal chamber and ke is the first-order elimination with respect to BCRP. Because the asymmetric efflux ratio ERa is defined as: ERa=1+ ke/Pa"}, "[5]": {"test_system": "MRP2", "conditions": "read-out: IC50, inhibition of MRP2-mediated p-aminohippurate efflux; cited from earlier work"}},
  "data": [
    {"molecule": "C[C@@H]1Cc2c(Cl)cc(C(=O)N[C@@H](Cc3ccccc3)C(=O)O)c(O)c2C(=O)O1", "note": "[OTA, Ochratoxin A]", "values": [
      {"measurement": "hPEPT-mediated transport of OTA", "setting": "[1]", "value": "did not observe any hPEPT-mediated transport"},
      {"measurement": "MRP2-mediated OTA transport", "setting": "[2]", "value": "no MRP2-mediated OTA transport"},
      {"measurement": "OTA accumulated in kidney tissue", "setting": "[3]; after 24 h", "value": "over 400 pmol/g"},
      {"measurement": "dose recovered in urine and feces", "setting": "[3]; after 96 h", "value": 15, "unit": "%"},
      {"measurement": "apparent CLint estimated by the slope of the linearly fitted line", "setting": "[4]", "value": "0.29 ± 0.03", "unit": "µL/min/cm^2"},
      {"measurement": "IC50", "setting": "[5]", "value": 58, "unit": "µM"}
    ]}
  ]
}
